For test [1], the target named is T1, SOS-mediated nucleotide exchange on Ras (Homo sapiens, UniProt Q07889).
T1 sequence (Q07889 1-1333): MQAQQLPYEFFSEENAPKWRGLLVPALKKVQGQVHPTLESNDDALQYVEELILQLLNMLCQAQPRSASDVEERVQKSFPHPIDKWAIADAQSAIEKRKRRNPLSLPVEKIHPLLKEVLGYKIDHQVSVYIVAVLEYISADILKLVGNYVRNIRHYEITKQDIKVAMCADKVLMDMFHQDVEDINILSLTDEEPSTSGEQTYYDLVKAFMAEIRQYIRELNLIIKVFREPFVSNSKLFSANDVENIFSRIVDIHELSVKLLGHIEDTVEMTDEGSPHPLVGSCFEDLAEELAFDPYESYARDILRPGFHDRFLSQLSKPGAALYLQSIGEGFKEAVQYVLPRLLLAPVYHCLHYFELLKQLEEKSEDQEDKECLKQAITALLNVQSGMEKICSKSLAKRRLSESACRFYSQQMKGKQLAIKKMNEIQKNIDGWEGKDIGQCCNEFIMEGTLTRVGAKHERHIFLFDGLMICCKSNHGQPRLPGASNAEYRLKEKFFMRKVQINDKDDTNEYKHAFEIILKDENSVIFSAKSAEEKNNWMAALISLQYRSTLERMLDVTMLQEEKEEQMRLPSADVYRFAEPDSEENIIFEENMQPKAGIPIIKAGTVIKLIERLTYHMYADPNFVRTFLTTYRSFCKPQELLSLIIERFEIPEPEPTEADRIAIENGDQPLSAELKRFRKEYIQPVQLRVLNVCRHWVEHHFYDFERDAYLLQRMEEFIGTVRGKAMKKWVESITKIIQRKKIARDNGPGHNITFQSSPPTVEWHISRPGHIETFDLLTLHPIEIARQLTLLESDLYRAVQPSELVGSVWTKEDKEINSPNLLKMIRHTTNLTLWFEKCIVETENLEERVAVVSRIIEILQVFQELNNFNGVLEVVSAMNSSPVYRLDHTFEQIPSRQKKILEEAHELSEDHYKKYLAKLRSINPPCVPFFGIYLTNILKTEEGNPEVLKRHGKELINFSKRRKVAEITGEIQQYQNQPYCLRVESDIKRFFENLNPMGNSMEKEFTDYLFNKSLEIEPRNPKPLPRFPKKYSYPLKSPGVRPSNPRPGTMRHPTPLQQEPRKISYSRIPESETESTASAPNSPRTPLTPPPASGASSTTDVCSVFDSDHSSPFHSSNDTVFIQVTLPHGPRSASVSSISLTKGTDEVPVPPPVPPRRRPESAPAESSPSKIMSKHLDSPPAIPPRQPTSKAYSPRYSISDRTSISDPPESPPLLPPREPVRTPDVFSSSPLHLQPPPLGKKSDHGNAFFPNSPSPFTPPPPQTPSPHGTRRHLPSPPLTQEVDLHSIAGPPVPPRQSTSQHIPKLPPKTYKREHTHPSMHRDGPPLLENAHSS
Kind of test: SOS-mediated nucleotide exchange on Ras (BODIPY-GDP fluorescence). Format: biochemical. As to conditions: Ras loaded with BODIPY-GDP, GTP and SOS added; EC50 from derived exchange rates. The method in brief: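 Compound, then GTP and SOS, were added to buffered Ras preloaded with BODIPY-GDP, and the fluorescence change from labeled GDP being exchanged for GTP was followed over time. Rates came from single-exponential fits, and EC50 from a four-parameter fit of mean rate against compound concentration.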

In a further test the target is T2, Son of Sevenless (SOS) (Homo sapiens, UniProt Q07889).
T2 sequence (Q07889 564-1049 limits assumed): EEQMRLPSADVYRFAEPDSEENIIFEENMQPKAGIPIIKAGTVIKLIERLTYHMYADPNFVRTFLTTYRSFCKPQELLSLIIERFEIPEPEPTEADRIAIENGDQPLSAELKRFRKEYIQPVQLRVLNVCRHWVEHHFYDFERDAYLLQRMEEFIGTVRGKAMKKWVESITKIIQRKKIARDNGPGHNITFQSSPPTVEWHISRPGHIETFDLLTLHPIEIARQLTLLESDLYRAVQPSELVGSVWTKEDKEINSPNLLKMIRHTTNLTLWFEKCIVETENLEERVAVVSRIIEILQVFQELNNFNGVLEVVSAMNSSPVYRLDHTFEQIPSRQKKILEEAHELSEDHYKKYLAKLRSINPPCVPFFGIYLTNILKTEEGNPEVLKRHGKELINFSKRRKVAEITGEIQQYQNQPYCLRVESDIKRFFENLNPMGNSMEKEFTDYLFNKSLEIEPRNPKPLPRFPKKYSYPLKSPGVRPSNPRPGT
Kind of test: Binding to SOS, fluorescence polarization anisotropy (FPA) displacement of FITC-conjugated probe. As to conditions: binding affinity calculated from IC50 of FITC-probe displacement, read-out: Binding affinities (binding affinity to SOS). The procedure, abridged:
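FITC-labelled probe incubated with SOS in buffer; displacement by test compound across a dose range read as fluorescence anisotropy change. IC50 from four-parameter variable-slope fit, binding affinity calculated from IC50.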

Each structure is given as a SMILES string. A value given as a limit tells only on which side of the number the result lay.

For orientation: EC50 means the concentration that produces a half-maximal response. Higher therefore signals a less potent agent. In test [1], `C[C@@H](Nc1nc(Nc2ccc(F)c(Cl)c2)nc2c(CC3CNC3)cccc12)C1CC1` [Example 113, (R)-8-(azetidin-3-ylmethyl)-N^2-(3-chloro-4-fluorophenyl)-N^4-(1-cyclopropylethyl)quinazoline-2,4-diamine] had a concentration giving a half-maximal response (EC50) of 1 to 5 µM. For the same compound, the Ki at Son of Sevenless (SOS) is 1 to 5 µM.

Regarding `C[C@@H](Nc1nc(Nc2ccc(F)c(Cl)c2)nc2c(CC3CC(N)C3)cccc12)C1CC1` (stereo partly drawn) [Example 114, (R)-8-((3-aminocyclobutyl)methyl)-N^2-(3-chloro-4-fluorophenyl)-N^4-(1-cyclopropylethyl)quinazoline-2,4-diamine], in test [1], the EC50 was 1 to 5 µM. At Son of Sevenless (SOS), the Ki was 1 to 5 µM.

As for `C=CC[C@@H](Nc1nc(Nc2ccc(F)c(Cl)c2)nc2c(C3=CCNCC3)cccc12)C1CC1` [Example 115, (R)—N^2-(3-chloro-4-fluorophenyl)-N^4-(1-cyclopropylbut-3-en-1-yl)-8-(1,2,3,6-tetrahydropyridin-4-yl)quinazoline-2,4-diamine], the EC50 in test [1] was 1 to 5 µM. At Son of Sevenless (SOS), the Ki is 1 to 5 µM.

In test [1], `C=CC[C@@H](Nc1nc(Nc2cc(F)cc(F)c2)nc2c(C3=CCNCC3)cccc12)C1CC1` [Example 116, (R)—N^4-(1-cyclopropylbut-3-en-1-yl)-N^2-(3,5-difluorophenyl)-8-(1,2,3,6-tetrahydropyridin-4-yl)quinazoline-2,4-diamine] yielded a concentration for a half-maximal effect (EC50) of 1 to 5 µM. Besides, the Ki at Son of Sevenless (SOS) was below 1 µM.

Take `C=CC[C@@H](Nc1nc(NCC2CCCCC2)nc2c(C3=CCNCC3)cccc12)C1CC1` [Example 117, (R)—N^2-(cyclohexylmethyl)-N^4-(1-cyclopropylbut-3-en-1-yl)-8-(1,2,3,6-tetrahydropyridin-4-yl)quinazoline-2,4-diamine]: in test [1], the EC50 lay within 1 to 5 µM. Further, the Ki at Son of Sevenless (SOS) is below 1 µM.

Compound `Cc1cc(F)cc(Nc2nc(N[C@H](C)C3CC3)c3cccc(CCN)c3n2)c1` [Example 118, (R)-8-(2-aminoethyl)-N^4-(1-cyclopropylethyl)-N^2-(3-fluoro-5-methylphenyl)quinazoline-2,4-diamine] had an EC50 in test [1] of 1 to 5 µM. In addition, at Son of Sevenless (SOS), the Ki was 1 to 5 µM.

`C[C@@H](Nc1nc(NCc2cccc(Cl)c2F)nc2c(CCN)cccc12)C1CC1` [Example 119, (R)-8-(2-aminoethyl)-N^2-(3-chloro-2-fluorobenzyl)-N^4-(1-cyclopropylethyl)quinazoline-2,4-diamine] had an EC50 in test [1] of 1 to 5 µM. Moreover, the Ki on Son of Sevenless (SOS) is 1 to 5 µM.

In test [1], `C[C@@H](Nc1nc(Nc2ccc(F)c(Cl)c2)nc2c(C3=CCN(C)CC3)cccc12)C1CC1` [Example 120, (R)—N^2-(3-chloro-4-fluorophenyl)-N^4-(1-cyclopropylethyl)-8-(1-methyl-1,2,3,6-tetrahydropyridin-4-yl)quinazoline-2,4-diamine] registered an EC50 of 5 to 30 µM. Also, the Ki at Son of Sevenless (SOS) is 1 to 5 µM.

The compound `C[C@@H](Nc1nc(NCC2CCCCC2)nc2c(C3=CCN(C)CC3)cccc12)C1CC1` [Example 121, (R)—N^2-(cyclohexylmethyl)-N^4-(1-cyclopropylethyl)-8-(1-methyl-1,2,3,6-tetrahydropyridin-4-yl)quinazoline-2,4-diamine] had an EC50 in test [1] of 1 to 5 µM. Moreover, the Ki at Son of Sevenless (SOS) is 1 to 5 µM.

Turning to `C[C@@H](Nc1nc(Nc2ccc(F)c(Cl)c2)nc2c(C3=CCOCC3)cccc12)C1CC1` [Example 122, (R)—N^2-(3-chloro-4-fluorophenyl)-N^4-(1-cyclopropylethyl)-8-(3,6-dihydro-2H-pyran-4-yl)quinazoline-2,4-diamine], the EC50 in test [1] was above 30 µM. Besides, the Ki on Son of Sevenless (SOS) was above 5 µM.

As to `CCOCCc1cccc2c(N[C@H](C)C3CC3)nc(Nc3ccc(F)c(Cl)c3)nc12` [Example 123, (R)—N^2-(3-chloro-4-fluorophenyl)-N^4-(1-cyclopropylethyl)-8-(2-ethoxyethyl)quinazoline-2,4-diamine], in test [1], the EC50 is above 30 µM. Further, the Ki at Son of Sevenless (SOS) was above 5 µM.

Values taken from patent publication US11318137B2, “Quinazoline compounds as modulators of Ras signaling” (VANDERBILT UNIVERSITY, priority 2017, dated 2022).
